The text below walks through data of patent US20140328757A1, “COMPOSITIONS COMPRISING ASCORBIC ACID AND AN IMAGING AGENT AND RELATED METHODS” (Lantheus Medical Imaging, Inc., priority 2011, published 2014).

The conditions of data set [1]: cited from earlier work.
Data set [2] can be described thus: pH and the chemical integrity (rate of non-radioactive impurity formation) of the non-radioactive congener. In kind it is physicochemical. The following applies: ascorbic acid 50 mg/mL, congener 5 μg/mL, ethanol 5%, treated with [18F]NaF. On the procedure: (§1) Both chemical integrity and overall stability of a radiopharmaceutical composition is measured through determination of the change in RCP of the labeled compound over time using ITLC or more preferably HPLC. The advantage of using HPLC is that impurities caused by radiolytic degradation may be readily separated from the labeled compound under certain chromatographic conditions. […] Several HPLC methods have been developed for monitoring the stability of radiopharmaceutical compositions of the present invention:
(§2) Analytical HPLC was performed on an Agilent Technologies 1100 LC containing a spectrophotometric detection system. Non-radiochemical impurities were evaluated at 295 nm using a Waters Zorbax SB-C18 column (4.6×50 mm, 1.8 μm) with an 8%/min gradient from 20-100% MeCN containing 0.1% formic acid and 10% H2O at 1 mL/min
The chemical integrity of radiopharmaceutical compositions containing the non-radioactive congener of the imaging agent (2-(tert-butyl)-4-chloro-5-((4-((2-fluoroethoxy)methyl)benzyl)oxy)pyridazin-3(2H)-one) was assessed over a range of pH values. […] The resulting solutions were treated with [^18F]NaF then monitored for changes in chemical purity (non-radioactive impurities) over time using the HPLC methods outlined in Example 5.

Data set [3] is described as follows: pH and the stability (radiochemical purity over time) of an imaging agent. In kind it is physicochemical. The following applies: ascorbic acid solutions with higher pH values (pH 5.8 and 6.5) versus more acidic compositions (pH 2.4-4.6). On the procedure: (§3) was then collected, diluted with an ascorbic acid solution (10-15 mL), then passed through a C18 Sep-Pak® cartridge, previously conditioned with 10 mL of ethanol followed by 10 mL of an ascorbic acid solution; The imaging agent was retained within the C18 resin matrix and the filtrate discarded. The cartridge was then successively washed with an ascorbic acid solution (10 mL), the filtrate discarded, then absolute ethanol (≦0.5 mL) and the filtrate collected. The resulting ethanol concentrate of the imaging agent was then diluted with an ascorbic acid solution prior to use.
(§4) Both chemical integrity and overall stability of a radiopharmaceutical composition is measured through determination of the change in RCP of the labeled compound over time using ITLC or more preferably HPLC. The advantage of using HPLC is that impurities caused by radiolytic degradation may be readily separated from the labeled compound under certain chromatographic conditions. […]
Analytical HPLC was performed on an Agilent Technologies 1100 LC containing a radiometric detection system. Radiochemical impurities were evaluated using a Berthold radiation detector and a Waters Zorbax SB-C18 column (4.6×50 mm, 1.8 μm) using an isocratic elution (45:55 H2O/MeCN) at 1 mL/min […]
The stability of radiopharmaceutical compositions containing an imaging agent was assessed over a range of pH values. […]

The nature of data set [4]: Concentration of ascorbic acid and the stability (radiochemical purity over time) of an imaging agent. In kind it is physicochemical. The following applies: pH 5.8. How it is done: as §3, §4
The stability of radiopharmaceutical compositions containing an imaging agent was assessed over a range of ascorbic acid concentration values. […] Each solution was then utilized in the preparation of the imaging agent described in Example 4, and the resulting compositions monitored for changes in radiochemical purity over time using the HPLC methods described in Example 5.

Data set [5] can be described thus: Stability (radiochemical purity over time by HPLC) of radiopharmaceutical compositions over a range of ascorbic acid and radioactivity concentrations. It counts as physicochemical. Conditions: pH 5.8.
Excerpt: The radiochemical purity (RCP) of a labeled compound (i.e., as in Example 3) is known to be dependent on certain conditions of its preparation including, but not limited to, reaction temperature, solution pH and overall synthesis time. Once prepared with high RCP, the labeled compound is formulated into a radiopharmaceutical composition designed to stabilize the labeled compound over time. Certain radiopharmaceutical compositions of the present invention are effective in maintaining the stability of labeled compounds for up to 12 h.
as §1
Analytical HPLC was performed on an Agilent Technologies 1100 LC containing a radiometric detection system. Radiochemical impurities were evaluated using a Berthold radiation detector and a Waters Zorbax SB-C18 column (4.6×50 mm, 1.8 μm) using an isocratic elution (45:55 H2O/MeCN) at 1 mL/min
as §2
Analytical HPLC was performed on an Agilent Technologies 1100 LC containing both radiometric and spectrophotometric detection systems. Radiochemical impurities were evaluated using a Raytest GabiStar radiation detector and non-radiochemical impurities were evaluated at 295 nm both using a Waters Zorbax SB-C18 column (4.6×50 mm, 1.8 μm) with a 6%/min gradient from 20-50% MeCN, followed by a 1.4%/min gradient from 50-60% MeCN, followed by a 2%/min gradient from 60-70% MeCN each containing 0.1% formic acid and 10% H2O at 1 mL/min.
Analytical HPLC was performed on an Agilent Technologies 1100 LC containing both radiometric and spectrophotometric detection systems. Radiochemical impurities were evaluated using a Raytest GabiStar radiation detector and non-radiochemical impurities were evaluated at 295 nm both using a Waters Zorbax SB-C18 column (4.6×50 mm, 1.8 μm) with a 30%/min gradient from 30-60% MeCN, followed by a 2 min isocratic hold at 60% MeCN, followed by a 5%/min gradient from 60-80% MeCN each containing 0.1% trifluoroacetic acid and 10% H2O at 1 mL/min
Aqueous [^18F]fluoride, as prepared in Example 1, was filtered through an anion exchange column to remove unreacted [^18O]H2O; [^18F]fluoride was retained within the […] resin matrix. The column was then washed with aqueous Et4NHCO3 with transfer to the reaction vessel. The resulting solution was diluted with MeCN then concentrated to dryness using elevated temperature and reduced pressure. The mixture of anhydrous [^18F]Et4NF and Et4NHCO3 thus obtained was treated with the acetonitrile solution of the imaging agent precursor as prepared in Example 2, then warmed to 85-120° C. and maintained 5-20 min. After cooling, the solution was diluted with H2O or H2O/MeCN then directly purified by HPLC using a 45:55 H2O/MeCN eluent. The main product peak was collected and diluted with ascorbic acid (10 mL of a 0.28 M solution; pH 2).
was retained within the C18 resin matrix and the filtrate discarded. The cartridge was successively washed with ascorbic acid (10 mL of a 0.28 M solution in H2O; pH 2), the filtrate discarded, then absolute EtOH (≦0.50 mL), and the filtrate collected. […]

Take `O=C1O[C@H]([C@@H](O)CO)C(O)=C1O` [ascorbic acid]: the pKa entry in data set [1] is given as “about 4.2”.
On to `CC(C)(C)n1ncc(OCc2ccc(COCCF)cc2)c(Cl)c1=O` [2-(tert-butyl)-4-chloro-5-((4-((2-fluoroethoxy)methyl)benzyl)oxy)pyridazin-3(2H)-one], for which the “Reaction order of formation of certain non-radioactive impurities (FIG. 2)” value in data set [2] was “first order”. The “Reduction in the rate of impurity formation (non-radioactive impurities, FIG. 2)” value in data set [2] (over the pH range considered (4.0-8.2)) is given as “ten-fold reduction”.
`CC(C)(C)n1ncc(OCc2ccc(COCC[18F])cc2)c(Cl)c1=O` [imaging agent, 2-tert-butyl-4-chloro-5-[4-(2-[18F]fluoro-ethoxymethyl)-benzyloxy]-2H-pyridazin-3-one]: the “Initial RCP and change in RCP over time (FIG. 1)” value in data set [3] is “markedly less initial stability and stability to storage”. The “RCP (FIG. 3)” value in data set [4] (ascorbic acid 20 mg/mL) was “overall decrease in RCP”. In addition, the “Initial RCP and variability in RCP over time (FIG. 3)” value in data set [4] (ascorbic acid 200 to 50 mg/mL) is “do not significantly change”. The “Radiochemical Purity” value is 100.0% in data set [5] (0 h, ascorbic acid 30 mg/mL, 29.5 mCi/mL, Siemens GN module); 100.0% in data set [5] (0 h, ascorbic acid 30 mg/mL, 68.0 mCi/mL, Eckert & Ziegler module); 100.0% in data set [5] (0 h, ascorbic acid 50 mg/mL, 44.8 mCi/mL, Eckert & Ziegler module); 100.0% in data set [5] (0 h, ascorbic acid 50 mg/mL, 47.0 mCi/mL, Siemens GN module); 100.0% in data set [5] (0 h, ascorbic acid 50 mg/mL, 50.0 mCi/mL, Siemens RN module); 100.0% in data set [5] (0 h, ascorbic acid 50 mg/mL, 65.4 mCi/mL, GE MX module). Besides, the “Radiochemical Purity” value came to 99.7% in data set [5] (0 h, ascorbic acid 50 mg/mL, 115.9 mCi/mL, Siemens GN module); 100.0% in data set [5] (3 h, ascorbic acid 30 mg/mL, 29.5 mCi/mL, Siemens GN module); 97.6% in data set [5] (3 h, ascorbic acid 30 mg/mL, 68.0 mCi/mL, Eckert & Ziegler module); 100.0% in data set [5] (3 h, ascorbic acid 50 mg/mL, 44.8 mCi/mL, Eckert & Ziegler module); 100.0% in data set [5] (3 h, ascorbic acid 50 mg/mL, 47.0 mCi/mL, Siemens GN module); 98.2% in data set [5] (3 h, ascorbic acid 50 mg/mL, 50.0 mCi/mL, Siemens RN module). The “Radiochemical Purity” value in data set [5] (3 h, ascorbic acid 50 mg/mL, 65.4 mCi/mL, GE MX module) amounted to 100.0%; in data set [5] (3 h, ascorbic acid 50 mg/mL, 115.9 mCi/mL, Siemens GN module), 97.1%; in data set [5] (6 h, ascorbic acid 30 mg/mL, 29.5 mCi/mL, Siemens GN module) it was 100.0%; in data set [5] (6 h, ascorbic acid 30 mg/mL, 68.0 mCi/mL, Eckert & Ziegler module) it was 96.7%; in data set [5] (6 h, ascorbic acid 50 mg/mL, 44.8 mCi/mL, Eckert & Ziegler module) it was 100.0%; in data set [5] (6 h, ascorbic acid 50 mg/mL, 47.0 mCi/mL, Siemens GN module), 99.2%. Besides, the “Radiochemical Purity” value in data set [5] (6 h, ascorbic acid 50 mg/mL, 50.0 mCi/mL, Siemens RN module) was 99.0%; in data set [5] (6 h, ascorbic acid 50 mg/mL, 65.4 mCi/mL, GE MX module), 98.7%; in data set [5] (6 h, ascorbic acid 50 mg/mL, 115.9 mCi/mL, Siemens GN module), 97.1%; in data set [5] (9 h, ascorbic acid 30 mg/mL, 29.5 mCi/mL, Siemens GN module) it was 100.0%; in data set [5] (9 h, ascorbic acid 30 mg/mL, 68.0 mCi/mL, Eckert & Ziegler module), 96.2%; in data set [5] (9 h, ascorbic acid 50 mg/mL, 44.8 mCi/mL, Eckert & Ziegler module) it was 100.0%. The “Radiochemical Purity” value in data set [5] (9 h, ascorbic acid 50 mg/mL, 47.0 mCi/mL, Siemens GN module) is 99.4%; in data set [5] (9 h, ascorbic acid 50 mg/mL, 50.0 mCi/mL, Siemens RN module), 98.0%; in data set [5] (9 h, ascorbic acid 50 mg/mL, 65.4 mCi/mL, GE MX module), 99.3%; in data set [5] (9 h, ascorbic acid 50 mg/mL, 115.9 mCi/mL, Siemens GN module), 96.0%; in data set [5] (12 h, ascorbic acid 30 mg/mL, 29.5 mCi/mL, Siemens GN module), 100.0%; in data set [5] (12 h, ascorbic acid 30 mg/mL, 68.0 mCi/mL, Eckert & Ziegler module) it was 96.1%. Moreover, the “Radiochemical Purity” value in data set [5] (12 h, ascorbic acid 50 mg/mL, 44.8 mCi/mL, Eckert & Ziegler module) was 100.0%; in data set [5] (12 h, ascorbic acid 50 mg/mL, 47.0 mCi/mL, Siemens GN module), 99.5%; in data set [5] (12 h, ascorbic acid 50 mg/mL, 50.0 mCi/mL, Siemens RN module) it was 98.2%; in data set [5] (12 h, ascorbic acid 50 mg/mL, 65.4 mCi/mL, GE MX module), 96.9%; in data set [5] (12 h, ascorbic acid 50 mg/mL, 115.9 mCi/mL, Siemens GN module) it was 96.0%. Also, the “Initial RCP and variability in RCP over time” value in data set [5] (over 30 to 50 mg/mL ascorbic acid and 30 to 115 mCi/mL) is “do not significantly change”.
